Assay results as given in patent US20230312576A1, “4-(7H-PYRROLO[2,3-D]PYRIMIDIN-4-YL)-3,6-DIHYDROPYRIDINE-1-(2H)-CARBOXAMIDE DERIVATIVES AS LIMK AND/OR ROCK KINASES INHIBITORS FOR USE IN THE TREATMENT OF CANCER” (CENTRE NATIONAL DE LA RECHERCHE SCIENTIFIQUE, priority 2020, published 2023).
Where two headings read alike, the source gives them in different places.

Assays:
ROCK1 = ROCK1 (Homo sapiens (Human), UniProt Q13464); test: Z'Lyte assay, ROCK1 inhibition at a single concentration; format: biochemical
ROCK1, sequence (Q13464 whole entry): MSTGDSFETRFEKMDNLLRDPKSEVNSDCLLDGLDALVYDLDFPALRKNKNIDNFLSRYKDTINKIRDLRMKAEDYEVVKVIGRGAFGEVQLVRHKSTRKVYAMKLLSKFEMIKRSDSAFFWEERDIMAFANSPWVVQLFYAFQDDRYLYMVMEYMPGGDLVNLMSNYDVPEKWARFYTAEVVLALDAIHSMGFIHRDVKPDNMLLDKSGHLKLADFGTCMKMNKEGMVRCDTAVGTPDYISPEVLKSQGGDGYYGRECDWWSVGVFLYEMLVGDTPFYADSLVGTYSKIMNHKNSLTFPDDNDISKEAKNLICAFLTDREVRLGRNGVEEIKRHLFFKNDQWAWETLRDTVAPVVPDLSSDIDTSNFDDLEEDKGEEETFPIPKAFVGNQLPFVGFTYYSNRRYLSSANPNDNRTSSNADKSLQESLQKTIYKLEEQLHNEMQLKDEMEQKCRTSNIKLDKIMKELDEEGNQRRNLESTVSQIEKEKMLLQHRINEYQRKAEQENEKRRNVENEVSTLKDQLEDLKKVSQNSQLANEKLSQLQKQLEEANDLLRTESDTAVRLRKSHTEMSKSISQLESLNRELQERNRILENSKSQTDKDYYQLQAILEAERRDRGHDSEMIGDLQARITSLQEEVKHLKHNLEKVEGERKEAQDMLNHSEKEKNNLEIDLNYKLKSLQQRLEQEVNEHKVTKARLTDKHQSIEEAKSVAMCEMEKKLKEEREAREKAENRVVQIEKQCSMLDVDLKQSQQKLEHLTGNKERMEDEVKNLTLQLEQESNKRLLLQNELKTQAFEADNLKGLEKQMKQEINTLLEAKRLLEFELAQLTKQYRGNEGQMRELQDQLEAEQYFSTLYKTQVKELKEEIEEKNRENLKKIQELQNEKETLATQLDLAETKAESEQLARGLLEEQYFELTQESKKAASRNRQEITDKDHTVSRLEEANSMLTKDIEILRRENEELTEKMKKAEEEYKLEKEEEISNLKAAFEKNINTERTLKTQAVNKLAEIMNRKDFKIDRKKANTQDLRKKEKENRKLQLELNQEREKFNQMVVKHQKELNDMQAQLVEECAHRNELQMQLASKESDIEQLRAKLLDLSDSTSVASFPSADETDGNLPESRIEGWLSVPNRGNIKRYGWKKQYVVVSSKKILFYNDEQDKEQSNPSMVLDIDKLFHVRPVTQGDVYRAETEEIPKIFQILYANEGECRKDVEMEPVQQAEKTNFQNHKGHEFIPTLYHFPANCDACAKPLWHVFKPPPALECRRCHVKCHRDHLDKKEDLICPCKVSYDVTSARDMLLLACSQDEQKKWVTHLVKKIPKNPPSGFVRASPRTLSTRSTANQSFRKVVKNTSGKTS

ROCK2 = ROCK2 (Homo sapiens (Human), UniProt O75116); test: Z'Lyte assay, ROCK2 inhibition at a single concentration; format: biochemical
ROCK2, sequence (O75116 whole entry): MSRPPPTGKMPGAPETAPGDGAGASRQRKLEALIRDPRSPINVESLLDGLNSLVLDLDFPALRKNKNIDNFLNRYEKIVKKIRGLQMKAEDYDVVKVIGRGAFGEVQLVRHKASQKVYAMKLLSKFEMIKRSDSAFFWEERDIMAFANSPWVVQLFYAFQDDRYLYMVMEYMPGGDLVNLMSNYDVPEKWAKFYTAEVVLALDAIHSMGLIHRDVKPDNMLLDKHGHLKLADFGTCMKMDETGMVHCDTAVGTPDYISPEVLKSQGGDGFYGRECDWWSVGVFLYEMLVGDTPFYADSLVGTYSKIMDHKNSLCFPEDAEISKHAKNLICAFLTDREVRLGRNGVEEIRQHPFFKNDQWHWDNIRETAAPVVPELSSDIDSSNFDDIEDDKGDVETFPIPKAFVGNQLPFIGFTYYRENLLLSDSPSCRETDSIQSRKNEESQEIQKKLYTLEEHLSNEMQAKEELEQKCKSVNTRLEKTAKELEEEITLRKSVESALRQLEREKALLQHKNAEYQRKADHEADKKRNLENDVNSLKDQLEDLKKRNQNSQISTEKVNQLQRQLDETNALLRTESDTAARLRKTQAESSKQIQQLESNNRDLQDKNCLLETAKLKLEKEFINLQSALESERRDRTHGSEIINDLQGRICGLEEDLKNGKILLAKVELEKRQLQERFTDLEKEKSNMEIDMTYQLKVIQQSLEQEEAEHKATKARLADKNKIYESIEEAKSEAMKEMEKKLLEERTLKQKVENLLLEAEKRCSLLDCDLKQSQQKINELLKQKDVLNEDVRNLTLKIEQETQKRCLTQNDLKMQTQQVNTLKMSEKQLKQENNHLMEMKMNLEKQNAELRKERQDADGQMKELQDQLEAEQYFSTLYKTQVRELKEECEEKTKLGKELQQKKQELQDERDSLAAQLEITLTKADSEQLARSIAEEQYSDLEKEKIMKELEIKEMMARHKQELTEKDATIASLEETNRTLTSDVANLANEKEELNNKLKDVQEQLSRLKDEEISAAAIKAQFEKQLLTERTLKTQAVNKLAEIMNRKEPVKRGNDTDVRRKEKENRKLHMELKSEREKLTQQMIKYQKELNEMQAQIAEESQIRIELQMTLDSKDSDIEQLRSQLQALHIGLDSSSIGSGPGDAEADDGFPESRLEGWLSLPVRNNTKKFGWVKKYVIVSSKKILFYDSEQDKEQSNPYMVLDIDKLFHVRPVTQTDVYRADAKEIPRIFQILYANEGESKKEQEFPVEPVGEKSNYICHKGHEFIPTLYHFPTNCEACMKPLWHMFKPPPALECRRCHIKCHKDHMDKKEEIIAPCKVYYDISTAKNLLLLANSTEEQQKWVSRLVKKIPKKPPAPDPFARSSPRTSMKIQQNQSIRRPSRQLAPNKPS

[1] = test system: cofilin phosphorylation, HeLa cells; test: Cofilin phosphorylation by Western Blot (anti-phospho-Ser3-cofilin) in HeLa cells; format: cell-based; settings: for inhibition at 25 µM: Homo sapiens
LIMK1 = LIMK1 (Homo sapiens (Human), UniProt P53667); test: Lanthascreen Eu binding assay (TR-FRET), inhibition of LIMK1
LIMK1, sequence (P53667 whole entry): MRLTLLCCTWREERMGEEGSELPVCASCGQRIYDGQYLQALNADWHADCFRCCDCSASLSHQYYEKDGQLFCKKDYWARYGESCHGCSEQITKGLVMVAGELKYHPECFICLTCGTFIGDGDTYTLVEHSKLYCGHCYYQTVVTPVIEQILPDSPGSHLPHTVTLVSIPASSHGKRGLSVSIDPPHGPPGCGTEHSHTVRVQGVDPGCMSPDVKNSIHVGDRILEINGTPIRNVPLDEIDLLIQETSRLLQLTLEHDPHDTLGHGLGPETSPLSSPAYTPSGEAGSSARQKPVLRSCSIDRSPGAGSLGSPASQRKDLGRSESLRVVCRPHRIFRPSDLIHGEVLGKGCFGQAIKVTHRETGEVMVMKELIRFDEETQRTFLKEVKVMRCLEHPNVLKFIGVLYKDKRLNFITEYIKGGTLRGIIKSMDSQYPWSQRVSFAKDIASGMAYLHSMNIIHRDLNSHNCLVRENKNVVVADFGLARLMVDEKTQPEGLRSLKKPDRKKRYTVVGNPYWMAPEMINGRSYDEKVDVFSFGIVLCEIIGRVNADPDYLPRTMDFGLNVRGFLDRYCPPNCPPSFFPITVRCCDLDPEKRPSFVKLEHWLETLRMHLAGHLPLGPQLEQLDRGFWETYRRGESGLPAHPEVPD

LIMK2 = LIMK2 (Homo sapiens (Human), UniProt P53671); test: Lanthascreen Eu binding assay (TR-FRET), inhibition of LIMK2
LIMK2, sequence (P53671 whole entry): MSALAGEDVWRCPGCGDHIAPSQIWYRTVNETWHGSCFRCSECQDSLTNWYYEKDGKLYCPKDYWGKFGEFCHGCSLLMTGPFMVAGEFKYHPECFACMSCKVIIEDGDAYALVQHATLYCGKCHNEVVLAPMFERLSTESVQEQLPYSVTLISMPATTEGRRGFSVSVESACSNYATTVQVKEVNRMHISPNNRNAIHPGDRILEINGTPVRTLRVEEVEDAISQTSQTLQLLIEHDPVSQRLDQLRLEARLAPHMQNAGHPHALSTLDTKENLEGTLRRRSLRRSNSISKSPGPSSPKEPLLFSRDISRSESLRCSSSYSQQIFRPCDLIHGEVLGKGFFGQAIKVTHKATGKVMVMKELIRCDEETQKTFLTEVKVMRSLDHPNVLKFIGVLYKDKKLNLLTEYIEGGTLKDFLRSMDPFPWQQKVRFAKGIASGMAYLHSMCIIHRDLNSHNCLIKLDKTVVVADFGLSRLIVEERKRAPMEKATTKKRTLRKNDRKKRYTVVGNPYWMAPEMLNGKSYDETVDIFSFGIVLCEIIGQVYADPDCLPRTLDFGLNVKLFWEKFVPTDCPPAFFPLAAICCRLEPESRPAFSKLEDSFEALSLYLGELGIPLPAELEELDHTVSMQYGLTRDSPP

[2] = read-out: % inhibition (ROCK1) 1 uM, 1 uM
[3] = read-out: % inhibition (ROCK2) 1 uM, 1 uM
[4] = HeLa, 2 h, read-out: % inhibition Cofilin phosphorylation HeLa cells treated 2 h with 25 uM of inhibitor
[5] = HeLa, 2 h, read-out: % inhibition of cofilin phosphorylation in HeLa cells (treatment 2 h, at 25 μM)
[6] = HeLa, 2 h, read-out: % inhibition of cofilin phosphorylation in HeLa cells (treatment 2 h, at 25 μM), Table 2, normalized to the control condition DMSO
[7] = read-out: % inhibition Cofilin phosphorylation HeLa cells treated 2 h with 25 uM of inhibitor, HeLa cells, 2 h, 25 uM
[8] = read-out: % inhibition (ROCK1) 1 uM
[9] = read-out: % inhibition (ROCK2) 1 uM

inhibition at 1 µM (ROCK1; [2]) [%] | inhibition at 1 µM (ROCK2; [3]) [%] | Ki (LIMK1; Lanthascreen Eu binding assay) [nM] | Ki (LIMK2; Lanthascreen Eu binding assay) [nM] | Compound | inhibition at 25 µM [1, 7] [%] | inhibition at 1 µM (ROCK1; [8]) [%] | inhibition at 1 µM (ROCK2; [9]) [%] | other results
 |  |  |  | Cc1c[nH]c2ncnc(C3=CC(C)N(C(=O)Nc4cccc(Br)c4)CC3)c12 (centres unmarked) [Compound 49a-49b, N-(3-bromophenyl)-6-methyl-4-(5-methyl-7H-pyrrolo[2,3-d]pyrimidin-4-yl)-3,6-dihydropyridine-1(2H)-carboxamide (49a) and N-(3-bromophenyl)-2-methyl-4-(5-methyl-7H-pyrrolo[2,3-d]pyrimidin-4-yl)-3,6-dihydropyridine-1(2H)-carboxamide (49b)] |  |  |  | % inhibition (ROCK1) 1 uM (ROCK1): 96%; % inhibition (ROCK2) 1 uM (ROCK2): 98%; % inhibition Cofilin phosphorylation HeLa cells treated 2 h with 25 uM of inhibitor [1]: 88.1%; % inhibition of cofilin phosphorylation in HeLa cells (treatment 2 h, at 25 μM) [1]: 88.1%
6 | 8 | 42.5 | 10.9 | O=C(Nc1cccc(Oc2ccccc2)c1)N1CC=C(c2ncnc3[nH]cc(C4CC4)c23)CC1 [Compound 79, 4-(5-Cyclopropyl-7H-pyrrolo[2,3-d]pyrimidin-4-yl)-N-(3-phenoxyphenyl)-3,6-dihydropyridine-1(2H)-carboxamide] | 83.1 |  |  | inhibition at 25 µM [1, 6]: 83.1%
16 | 11 | 47.4 | 20.3 | COc1cccc(Oc2cccc(NC(=O)N3CC=C(c4ncnc5[nH]cc(C6CC6)c45)CC3)c2)c1 [Compound 82, 4-(5-Cyclopropyl-7H-pyrrolo[2,3-d]pyrimidin-4-yl)-N-[3-(3-methoxyphenoxy)phenyl]-3,6-dihydropyridine-1(2H)-carboxamide] | 82.7 |  |  | inhibition at 25 µM [1, 6]: 82.7%
 |  |  |  | O=C(Nc1cccc(Br)c1)N1CC=C(c2ncnc3[nH]c4c(c23)CCC4)CC1 [Compound 112, N-(3-Bromophenyl)-4-(5,6,7,8-tetrahydrocyclopenta[4,5]pyrrolo[2,3-d]pyrimidin-4-yl)-3,6-dihydropyridine-1(2H)-carboxamide] |  | 8 | 13 | Ki (LIMK1): 7 nM; Ki (LIMK2): 24 nM; inhibition at 25 µM [1, 4]: 84.5%; inhibition at 25 µM [1, 5]: 84.5%
7 | 4 | 7.13 | 25.6 | O=C(Nc1cccc(F)c1)N1CC=C(c2ncnc3[nH]c4c(c23)CCCC4)CC1 [Compound 113, N-(3-Fluorophenyl)-4-(6,7,8,9-tetrahydro-5H-pyrimido[4,5-b]indol-4-yl)-3,6-dihydropyridine-1(2H)-carboxamide] | 87 |  |  | 
 |  |  |  | O=C(Nc1cccc(Br)c1)N1CC=C(c2ncnc3[nH]c4c(c23)CCCC4)CC1 [Compound 115, N-(3-Bromophenyl)-4-(6,7,8,9-tetrahydro-5H-pyrimido[4,5-b]indol-4-yl)-3,6-dihydropyridine-1(2H)-carboxamide] |  | 7 | 11 | Ki (LIMK1): 5.37 nM; Ki (LIMK2): 16.2 nM; inhibition at 25 µM [1, 4]: 81.8%; inhibition at 25 µM [1, 5]: 81.8%
-8 | -7 | 16.5 | 64 | O=C(Nc1cccc(F)c1)N1CC=C(c2ncnc3[nH]c4c(c23)CCCCC4)CC1 [Compound 116, N-(3-Fluorophenyl)-4-(5,6,7,8,9,10-hexahydrocyclohepta[4,5]pyrrolo[2,3-d]pyrimidin-4-yl)-3,6-dihydropyridine-1(2H)-carboxamide] | 73.1 |  |  | inhibition at 25 µM [1, 6]: 73.1%
 |  |  |  | O=C(Nc1cccc(Br)c1)N1CC=C(c2ncnc3[nH]c4c(c23)CCCCC4)CC1 [Compound 118, N-(3-Bromophenyl)-4-(5,6,7,8,9,10-hexahydrocyclohepta[4,5]pyrrolo[2,3-d]pyrimidin-4-yl)-3,6-dihydropyridine-1(2H)-carboxamide] |  | 10 | -4 | Ki (LIMK1): 14.7 nM; Ki (LIMK2): 40.4 nM; inhibition at 25 µM [1, 4]: 84.2%; inhibition at 25 µM [1, 5]: 84.2%
3 | 18 | 6.1 | 25.2 | COc1cccc(NC(=O)N2CC=C(c3ncnc4[nH]c5c(c34)CCC5)CC2)c1 [Compound 121, N-(3-Methoxyphenyl)-4-(5,6,7,8-tetrahydrocyclopenta[4,5]pyrrolo[2,3-d]pyrimidin-4-yl)-3,6-dihydropyridine-1(2H)-carboxamide] | 64.5 |  |  | 
3 | 20 | 8.19 | 39.3 | N#Cc1cccc(NC(=O)N2CC=C(c3ncnc4[nH]c5c(c34)CCC5)CC2)c1 [Compound 127, N-(3-Cyanophenyl)-4-(7,9,11-triazatricyclo[6.4.0.02,6]dodeca-1(8),2(6),9,11-tetraen-12-yl)-3,6-dihydropyridine-1(2H)-carboxamide] | 68.5 |  |  | 
 |  | 27.1 | 68.3 | O=C(Nc1cccc(C(F)(F)F)c1)N1CC=C(c2ncnc3[nH]c4c(c23)CCC4)CC1 [Compound 128, 4-(7,9,11-Triazatricyclo[6.4.0.02,6]dodeca-1(8),2(6),9,11-tetraen-12-yl)-N[3(trifluoromethyl)phenyl]-3,6-dihydropyridine-1(2H)-carboxamide] |  |  |  | % inhibition (ROCK2) 1 uM (ROCK2; 1 uM): −14%; % inhibition Cofilin phosphorylation HeLa cells treated 2 h with 25 uM of inhibitor ([1]; HeLa cells, 2 h, 25 uM): 83.9%; % inhibition of cofilin phosphorylation in HeLa cells (treatment 2 h, at 25 μM) ([1]; Table 2, normalized to the control condition DMSO): 83.9%
5 | 3 | 103 | 466 | Cc1c[nH]c2ncnc(C3=CCN(C(=O)Nc4cccc(Oc5cccc(OCc6ccccc6)c5)c4)CC3)c12 [Compound 211, N-(3-(3-(benzyloxy)phenoxy)phenyl)-4-(5-methyl-7H-pyrrolo[2,3-d]pyrimidin-4-yl)-3,6-dihydropyridine-1(2H)-carboxamide] |  |  |  | 
55 | 27 | 12.9 | 16.3 | Cc1c[nH]c2ncnc(C3=CCN(C(=O)Nc4cccc(Oc5cccc(O)c5)c4)CC3)c12 [Compound 213, N-(3-(3-hydroxyphenoxy)phenyl)-4-(5-methyl-7H-pyrrolo[2,3-d]pyrimidin-4-yl)-3,6-dihydropyridine-1(2H)-carboxamide] |  |  |  | 
60 | 37 | 4.93 | 5.46 | CC(=O)Nc1cccc(Oc2cccc(NC(=O)N3CC=C(c4ncnc5[nH]cc(C)c45)CC3)c2)c1 [Compound 219, N-(3-(3-acetamidophenoxy)phenyl)-4-(5-methyl-7H-pyrrolo[2,3-d]pyrimidin-4-yl)-3,6-dihydropyridine-1(2H)-carboxamide] |  |  |  | 
66 | 48 | 4.59 | 2.96 | CNC(=O)c1cccc(Oc2cccc(NC(=O)N3CC=C(c4ncnc5[nH]cc(C)c45)CC3)c2)c1 [Compound 222, 4-(5-methyl-7H-pyrrolo[2,3-d]pyrimidin-4-yl)-N-(3-(3-(methylcarbamoyl)phenoxy)phenyl)-3,6-dihydropyridine-1(2H)-carboxamide] |  |  |  | 

Compound | inhibition at 1 µM (ROCK1; [2]) [%] | inhibition at 1 µM (ROCK2; [3]) [%] | Ki (LIMK1; Lanthascreen Eu binding assay) [nM] | Ki (LIMK2; Lanthascreen Eu binding assay) [nM] | inhibition at 25 µM [1, 7] [%] | inhibition at 1 µM (ROCK1; [8]) [%] | inhibition at 1 µM (ROCK2; [9]) [%] | other results
Cc1c[nH]c2ncnc(C3=CCN(C(=O)Nc4ccc5ccccc5c4)CC3)c12 [Compound 13, 4-(5-Methyl-7H-pyrrolo[2,3-d]pyrimidin-4-yl)-N-(naphthalen-2-yl)-3,6-dihydropyridine-1(2H)-carboxamide] | 73 | 56 |  |  |  |  |  | inhibition at 25 µM [1, 4]: 84.2%; inhibition at 25 µM [1, 5]: 84.2%
O=C(Nc1cccc(-n2cccc2)c1)N1CC=C(c2ncnc3[nH]cc(C4CC4)c23)CC1 [Compound 81, 4-(5-Cyclopropyl-7H-pyrrolo[2,3-d]pyrimidin-4-yl)-N-(3-pyrrol-1-ylphenyl)-3,6-dihydropyridine-1(2H)-carboxamide] | 36 | 35 |  |  |  |  |  | inhibition at 25 µM [1, 4]: 90%; inhibition at 25 µM [1, 5]: 90%
O=C(Nc1cccc(Cl)c1)N1CC=C(c2ncnc3[nH]c4c(c23)CCC4)CC1 [Compound 111, N-(3-Chlorophenyl)-4-(5,6,7,8-tetrahydrocyclopenta[4,5]pyrrolo[2,3-d]pyrimidin-4-yl)-3,6-dihydropyridine-1(2H)-carboxamide] |  |  | 5.78 | 25.5 | 82.3 | 10 | 14 | inhibition at 25 µM [1, 6]: 82.3%
O=C(Nc1cccc(Cl)c1)N1CC=C(c2ncnc3[nH]c4c(c23)CCCCC4)CC1 [Compound 117, N-(3-Chlorophenyl)-4-(5,6,7,8,9,10-hexahydrocyclohepta[4,5]pyrrolo[2,3-d]pyrimidin-4-yl)-3,6-dihydropyridine-1(2H)-carboxamide] |  |  | 22 | 61.3 | 69.2 | 4 | 7 | 
O=C(Nc1ccccc1)N1CC=C(c2ncnc3[nH]c4c(c23)CCC4)CC1 [Compound 119, N-Phenyl-4-(5,6,7,8-tetrahydrocyclopenta[4,5]pyrrolo[2,3-d]pyrimidin-4-yl)-3,6-dihydropyridine-1(2H)-carboxamide] |  |  | 7.98 | 30.4 | 64.1 | 0 | 11 | 
Cc1c[nH]c2ncnc(C3=CCN(C(=O)Nc4cccc(Oc5cccc(OC(=O)N(C)C)c5)c4)CC3)c12 [Compound 216, 3-(3-(4-(5-methyl-7H-pyrrolo[2,3-d]pyrimidin-4-yl)-1,2,3,6-tetrahydropyridine-1-carboxamido)phenoxy)phenyl dimethylcarbamate] |  |  | 4.88 | 14.6 |  | 71 | 56 | 
